Results published in patent US11198869B2, “Angelman syndrome antisense treatment” (The Texas A&M University System, priority 2017, dated 2021).
Where two headings read alike, the source gives them in different places.

Experiments:
[1] = system: UBE3A-AS; experiment: UBE3A-AS steady state RNA (TaqMan qRT-PCR) in GABAergic iPSC-derived neurons; type: cell-based, human; conditions: for IC50 / Relative Potency: optimized ASOs; for IC50: 3-parameter logistic; for Relative Potency: relative to ASO 4.S = 1
Experimental: Human-specific ASOs were then designed to target this region, which included four ASOs targeting non-polymorphic regions in human and regions conserved (100%) with macaque (Rhesus and Cynomolgus) (Table 7 and FIG. 3A). Human induced pluripotent stem cell (iPSC) neural precursor cells were differentiated into GABAergic neurons for 14 DIV and then treated with a control ASO [ASO-C (10 μM, n=3)], Topotecan [Topo (1 μM, n=2)], and six ASOs targeting UBE3A-AS [ASO-1, ASO-2, ASO-3, ASO-4, ASO-5, and ASO-6 (10 μM, n=3)]. Additionally, an ASO targeting an intronic region downstream of SNORD109B was included (ASO-7). Six days post-treatment (20 DIV), RNA was isolated from the neurons and the steady state RNA levels of UBE3A-AS and UBE3A were estimated relative to the control treatment (FIG. 3B).
The potency of ASO-4 was further examined given its effect on UBE3A-AS RNA levels. GABAergic iPSC-derived neurons were treated at 14 DIV with a 10-point ½ log dose response curve of ASO-4 and Topotecan, as a positive control and for comparisons between treatment [1 nM, 3 nM, 10 nM, 30 nM, 100 nM, 300 nM, 1 μM, 3 μM, 10 μM, and 30 μM (ASO-4, n=6; Topotecan, n=2)]. At 20 DIV, the steady state RNA levels of UBE3A-AS were measured and dose response curves fitted to estimate the IC50 and Emax (i.e., maximum UBE3A-AS inhibition) (Table 9 and FIG. 4A). […]
Additional ASOs targeting the 5′-end of UBE3A-AS were then designed to optimize the target sequences of ASO-4 (ASO-4.1, ASO-4.2, ASO-4.3, and ASO-4.4) as well as two other target regions, ASO-3 (ASO-3.1 and ASO-3.2) and ASO-6 (ASO-6.1) (Table 11). Additionally, ASO-4 was manufactured at two different vendors for comparative purposes (ASO-4.S, Sigma; ASO-4.I, Integrated DNA Technologies). Human iPSC-derived neurons (GABAergic) were treated at 14 DIV with a […] ½ log dose curve of ASO-3.1, ASO-3.2, ASO-4.S, ASO-4.I, ASO-4.1, ASO-4.2, ASO-4.3, ASO-4.4, and ASO-6.1 [30 nM, 100 nM, 300 nM, 1 μM (n=6)]. At 20 DIV, the IC50 and Emax of each ASO was estimated as described above (FIG. 5A-B and Table 12). […] No significant difference was observed between ASO-4.S and ASO-4.I.
The potency of ASO-4 and ASO-6.1 was further examined in iPSC-derived neurons at a later time point in differentiation. GABAergic iPSC-derived neurons were treated at 29 DIV with a 10-point ½ log dose response curve of ASO-4 and ASO-6.1 [1 nM, 3 nM, 10 nM, 30 nM, 100 nM, 300 nM, 1 μM, 3 μM, 10 μM, and 30 μM (n=3)]. At 35 DIV, the IC50 and Emax of each ASO was estimated as described above (FIG. 5C-D and Table 14). The dose response curves of ASO-4 and ASO-6.1 were not similar (Parallelism test: F(3,172)=22.7, p<0.0001).
GABAergic and glutamatergic induced pluripotent stem cell (iPSC) derived neural precursor cells (NRC-100-010-001 and GNC-301-030-001, Cellular Dynamics International, Madison Wis.) were differentiated into neurons according to the manufactures protocol. Briefly, neural precursor cells were thawed and resuspended in chemically defined medium and added to sterile-culture plates coated with poly-D-lysine and laminin. The medium was replaced 24 hr after plating and then one-half of the medium was replaced every 3-5 days afterwards.
For cultured iPSC-derived neurons, RNA isolation and cDNA synthesis were performed using the Cell-to-CT kit (Thermo Fisher Scientific) in a lysate volume of 55 μl.
The steady state RNA levels of target transcripts were measured using TaqMan quantitative reverse-transcription PCR (qRT-PCR) assays. Total reaction volume was 10 uL, including 2 μl of cDNA, 1× Gene Expression Master mix (4369016, Thermo Fisher Scientific, Waltham, Mass.), and 1× TaqMan primer assay (Thermo Fisher Scientific). Cycling conditions were 2 minutes at 50° C., 10 minutes at 95° C., and 40 cycles of 15 seconds at 95° C. and 1 minute at 60° C., with readings taken at the 60° C. step of every cycle. […]

[2] = system: UBE3A-AS; experiment: as above; type: cell-based, human; conditions: for IC50 Ratio relative to ASO-4.4.PS.L: equivalence; for IC50 Ratio relative to ASO-4.4.PS.L / Limit Exceeded (equivalence of IC50 relative to ASO-4.4.PS.L): two one-sided tests; for Relative Potency: relative to ASO-4.4.PS.L = 1
[3] = treated 14 DIV, RNA 20 DIV, 5-point dose curve 30 nM-3 μM, full model, read-out: IC50 Estimate, UBE3A-AS
[4] = candidate ASOs, 18 DIV to 24 DIV
[5] = candidate ASOs, 18 DIV to 24 DIV, 4-parameter logistic (Hill)
[6] = candidate ASOs, treated 18 DIV, RNA 24 DIV, 10-point dose curve, n=2, full model, 4-parameter logistic (Hill)
[7] = 14 DIV to 20 DIV, parallel model, read-out: IC50 (M), UBE3A-AS
[8] = Cluster 1 ASOs, 18 DIV to 24 DIV, parallel model, 4 Parameter logistic (Hill)

A^O*U^O*A^O*G^O*A^O*a*t*g*g*c*a*c*a*t*c*U^O*C^O*U^O*U^O*G^O [ASO-4.1]
3 μM (Mean), Emax, normalized UBE3A-AS RNA level relative to vehicle ([1]; treated 14 DIV, RNA 20 DIV): 0.42
IC50 [1, 3]: 2.27e-06 M

U^O*A^O*G^O*A^O*A^O*t*g*g*c*a*c*a*t*c*t*C^O*U^O*U^O*G^O*G^o [ASO-4.0.PS.O]
30 μM (Mean), normalized UBE3A-AS RNA level relative to vehicle [2, 4]: 0.1
Emax (normalized UBE3A-AS RNA level relative to vehicle) [2, 5]: 0.06
IC50 [2, 6]: 1270 nM

G^O*U^O*U^O*G^O*a*g*t*g*g*t*g*t*c*a*G^O*U^O*U^O*U^O*C^O [ASO-3.1]
3 μM (Mean), Emax, normalized UBE3A-AS RNA level relative to vehicle ([1]; treated 14 DIV, RNA 20 DIV): 0.51
IC50 [1, 7]: 2.81e-06 M
Relative Potency ([1]; parallel model): 0.53
IC50 [1, 3]: 2.98e-06 M

U^O*A^O*G^O*A^O*a*t*g*g*c*a*c*a*t*c*U^O*C^O*U^O*U^O*G^O [ASO-4.3]
3 μM (Mean), Emax, normalized UBE3A-AS RNA level relative to vehicle ([1]; treated 14 DIV, RNA 20 DIV): 0.40
IC50 [1, 7]: 1.96e-06 M
Relative Potency ([1]; parallel model): 0.76
IC50 [1, 3]: 2.03e-06 M

U^O*A^O-G^O*A^O-A^O*t-g*g-c*a-c*a-t*c-t*C^O-U^O*U^O-G^O*G^o [ASO-4.0.PO-2.O]
30 μM (Mean), normalized UBE3A-AS RNA level relative to vehicle [2, 4]: 0.6
Emax (normalized UBE3A-AS RNA level relative to vehicle) [2, 5]: −0.3
IC50 [2, 6]: 130000 nM

5mC^M*T^M-G^M*G^M-t*g-t*c-a*a-c*a-a*g-5mC^M*5mC^M-A^M*A^M [ASO-6.1.PO-2.M]
30 μM (Mean), normalized UBE3A-AS RNA level relative to vehicle [2, 4]: 0.3
Emax (normalized UBE3A-AS RNA level relative to vehicle) [2, 5]: −1.2
IC50 [2, 6]: 269000 nM

A^O*G^O*A^O*A^O*t*g*g*c*a*c*a*t*c*t*C^O*U^O*U^O*G^O [ASO-4.4]
3 μM (Mean), Emax, normalized UBE3A-AS RNA level relative to vehicle ([1]; treated 14 DIV, RNA 20 DIV): 0.44
IC50 [1, 7]: 2.04e-06 M
Relative Potency ([1]; parallel model): 0.73
IC50 [1, 3]: 2.11e-06 M

T^L*G^L*G^L*t*g*t*c*a*a*c*a*a*g*5mC^L*5mC^L*A^L*A^L [ASO-6.1.PS.L]
IC50 [2, 8]: 281 nM
IC50 Ratio relative to ASO-4.4.PS.L ([2]; Cluster 1 ASOs): 0.85
Relative Potency ([2]; Cluster 1 ASOs, parallel model): 0.2
Limit Exceeded (equivalence of IC50 relative to ASO-4.4.PS.L) ([2]; Cluster 1 ASOs): Lower
30 μM (Mean), normalized UBE3A-AS RNA level relative to vehicle [2, 4]: 0.04
Emax (normalized UBE3A-AS RNA level relative to vehicle) [2, 5]: −0.07
IC50 [2, 6]: 362 nM

A^O*G^O*A^O*A^O*t*g*g*c*a*c*a*t*c*t*C^O*U^O*U^O*G^O*G^O [ASO-4.2]
3 μM (Mean), Emax, normalized UBE3A-AS RNA level relative to vehicle ([1]; treated 14 DIV, RNA 20 DIV): 0.31
IC50 [1, 7]: 1.24e-06 M
Relative Potency ([1]; parallel model): 1.21
IC50 [1, 3]: 1.08e-06 M

C^O*U^O*G^O*G^O*t*g*t*c*a*a*c*a*a*g*C^O*C^O*A^O*A^o [ASO-6.1.PS.O]
IC50 [2, 8]: 432 nM
IC50 Ratio relative to ASO-4.4.PS.L ([2]; Cluster 1 ASOs): 0.83
Relative Potency ([2]; Cluster 1 ASOs, parallel model): 0.1
Limit Exceeded (equivalence of IC50 relative to ASO-4.4.PS.L) ([2]; Cluster 1 ASOs): Lower
30 μM (Mean), normalized UBE3A-AS RNA level relative to vehicle [2, 4]: 0.05
Emax (normalized UBE3A-AS RNA level relative to vehicle) [2, 5]: −0.2
IC50 [2, 6]: 532 nM

5mC^M*T^M*G^M*G^M-t*g*t*c*a*a*c*a*a*g-5mC^M*5mC^M*A^M*A^M [ASO-6.1.PO-1.M]
IC50 [2, 8]: 177 nM
IC50 Ratio relative to ASO-4.4.PS.L ([2]; Cluster 1 ASOs): 0.90
Relative Potency ([2]; Cluster 1 ASOs, parallel model): 0.3
Limit Exceeded (equivalence of IC50 relative to ASO-4.4.PS.L) ([2]; Cluster 1 ASOs): equivalent IC50 values
30 μM (Mean), normalized UBE3A-AS RNA level relative to vehicle [2, 4]: 0.04
Emax (normalized UBE3A-AS RNA level relative to vehicle) [2, 5]: −0.02
IC50 [2, 6]: 166 nM

U^O*A^O*G^O*A^O*A^O-t*g*g*c*a*c*a*t*c*t-C^O*U^O*U^O*G^O*G^o [ASO-4.0.PO-1.O]
30 μM (Mean), normalized UBE3A-AS RNA level relative to vehicle [2, 4]: 0.1
Emax (normalized UBE3A-AS RNA level relative to vehicle) [2, 5]: 0.05
IC50 [2, 6]: 766 nM

T^M*A^M*G^M*A^M*A^M-t*g*g*c*a*c*a*t*c*t-5mC^M*T^M*T^M*G^M*G^M [ASO-4.0.PO-1.M]
IC50 [2, 8]: 278 nM
IC50 Ratio relative to ASO-4.4.PS.L ([2]; Cluster 1 ASOs): 0.87
Relative Potency ([2]; Cluster 1 ASOs, parallel model): 0.2
Limit Exceeded (equivalence of IC50 relative to ASO-4.4.PS.L) ([2]; Cluster 1 ASOs): Lower
30 μM (Mean), normalized UBE3A-AS RNA level relative to vehicle [2, 4]: 0.05
Emax (normalized UBE3A-AS RNA level relative to vehicle) [2, 5]: 0.02
IC50 [2, 6]: 278 nM

U^O*U^O*G^O*A^O*g*t*g*g*t*g*t*c*a*g*U^O*U^O*U^O*C^O [ASO-3.2]
3 μM (Mean), Emax, normalized UBE3A-AS RNA level relative to vehicle ([1]; treated 14 DIV, RNA 20 DIV): 0.44
IC50 [1, 7]: 1.85e-06 M
Relative Potency ([1]; parallel model): 0.81
IC50 [1, 3]: 1.88e-06 M
